From patent US6399828B1, “Preparation of amphetamines from phenylpropanolamines” (Boehringer Ingelheim Chemicals, Inc., priority 2001, dated 2002)

Assays:
[1] = Stability of O-acetylnorephedrine hydrochloride stirred with water (rearrangement to N-acetylnorephedrine), HPLC analyses; type: physicochemical
Protocol: Ammonium formate appears to catalyze the rearrangement of O-acetylnorephedrine hydrochloride to N-acetylnorephedrine. Three samples of O-acetylnorephedrine hydrochloride (Experiment Z recrystallized) were stirred with water for six hours respectively at room temperature, at 60° C., and at 60° C. with ammonium formate added. Samples were taken at intervals for HPLC analyses. […] At 60° C., the percentage of O-acetylnorephedrine hydrochloride decreased from 99.18 to 97.79 with the percentage of N-acetylnorephedrine increasing from 0.21% to 1.1% over a 6 hour period. […] The catalytic hydrogenation route therefore appears to be preferable to catalytic transfer hydrogenation in view of the induction period, gas evolution, and rearrangement potential.

[2] = Solubility of O-acetylnorephedrine hydrochloride in water (Experiment X)

CC(=O)OC(c1ccccc1)C(C)N.Cl (stereo not shown) [O-acetylnorephedrine hydrochloride, 2-Amino-1-acetoxy1-phenylpropane Hydrochloride]
percentage of O-acetylnorephedrine hydrochloride ([1]; water with ammonium formate, 60° C., by 6 hours): 77.20% | percentage of O-acetylnorephedrine hydrochloride ([1]; water with ammonium formate, 60° C., within 30 minutes): 91.23% | percentage of O-acetylnorephedrine hydrochloride ([1]; water, 60° C., after 6 hours): 97.79% | percentage of O-acetylnorephedrine hydrochloride ([1]; water, 60° C., start): 99.18% | percentage of O-acetylnorephedrine hydrochloride ([1]; water, room temperature, after 6 hours): 99.12% | percentage of O-acetylnorephedrine hydrochloride ([1]; water, room temperature, start): 99.30% | solubility in water [2]: 5.5 mL/g
